T1: recombinant human glypican-4 (human, UniProt O75487 19-529)
T1 construct: also called GPC4; rHSPG; source: bought: R&D Systems; from the Chinese Hamster Ovary cell line
T1 sequence (looked up): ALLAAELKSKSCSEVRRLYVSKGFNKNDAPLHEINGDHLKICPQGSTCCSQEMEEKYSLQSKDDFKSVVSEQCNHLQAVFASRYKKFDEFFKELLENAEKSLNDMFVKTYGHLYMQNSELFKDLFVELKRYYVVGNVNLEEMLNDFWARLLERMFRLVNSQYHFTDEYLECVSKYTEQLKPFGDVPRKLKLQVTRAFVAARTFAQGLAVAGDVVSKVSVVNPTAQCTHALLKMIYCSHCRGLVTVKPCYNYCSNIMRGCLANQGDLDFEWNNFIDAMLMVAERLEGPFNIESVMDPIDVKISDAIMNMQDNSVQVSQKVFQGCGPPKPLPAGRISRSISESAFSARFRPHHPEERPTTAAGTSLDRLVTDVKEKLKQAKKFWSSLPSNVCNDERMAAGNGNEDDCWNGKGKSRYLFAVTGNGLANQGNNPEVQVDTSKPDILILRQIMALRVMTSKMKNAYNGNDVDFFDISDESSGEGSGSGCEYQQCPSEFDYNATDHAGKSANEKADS


Key:
[1] = tested on: NT4 (NT4-biotin captured on streptavidin CM5 chip); assay: SPR, synthetic sulfated oligosaccharides injected over immobilized NT4; assay type: binding; details: for oligosaccharide binding to immobilized NT4 (in words): oligosaccharide 100 μg/ml (Figure 4E); for Kd (koff) / Ka (Kon) / Kd: immobilized NT4-biotin, HBS-EP+ pH 7.4, 1:1 Langmuir model, oligosaccharide as analyte; for Kd (koff): dissociation rate
Text: Eight-mer and nine-mer oligosaccharides S00 (GlcNAc-GlcA)4 α-paranitrophenyl, S04 (GlcNS-GlcA)4 α-paranitrophenyl, S06a (GlcA-GlcNS)2-(GlcA-GlcNS,6S)2-GlcA α-paranitrophenyl (9-mer), and S06b GlcNS-GlcA-GlcNS-IdoA,2S-GlcNS-IdoA,2S-GlcNS-GlcA α-paranitrophenyl were purchased from Iduron. In all oligosaccharides, the units were linked together by α (1–4) bonds only and carry a paranitrophenyl group. S12 (ΔHexA,2S α1-4 GlcNS,6S)3 (9-mer) was from Amsbio, and its first glycoside is unsaturated.
(§1) NT4-biotin was captured on a CM5 sensor chip where streptavidin had previously been immobilized by standard amine coupling. Briefly, the sensor chip surface was activated with a mixture of 0.1 M 1-ethyl-3(3-dimethylaminopropyl)-carbodiimide (EDC) and 0.4 M N-hydroxyl succinimide (NHS) for 7 min at a flow rate of 5 μl/min. Streptavidin was injected over the surface for 7 min, and finally, 1 M ethanolamine pH 8.5 was used to block any activated carboxyl groups. NT4-biotin, diluted in HBS-EP+ (Hepes 10 mM, NaCl 150 mM, EDTA 3.4 mM, 0.05% p20, pH 7.4) to 30 μg/ml, was injected for 2 min at a flow rate of 10 μl/min.
(§2) HSPG and oligosaccharides were diluted to different concentrations in HBS-EP+ and then injected over immobilized NT4 peptides. The sensor chip surface was regenerated with a short pulse of 10 mM NaOH/0.5 M NaCl 5 min after the end of the injections.
(§3) Kinetics were analyzed with the Biacore T100 evaluation 1.1.1 software using the 1:1 Langmuir model to fit the curves.

cancer cell lines = details: confocal microscopy, 37°C; "completely internalized only after 2 h"; ref [14], [16]; cited from earlier work
living cells = details: after 24 h; mass spectrometry; ref [14]; cited from earlier work
[2] = tested on: NT4 (NT4-biotin captured on streptavidin CM5 chip); assay: SPR, rHSPG injected over immobilized NT4 (Biacore T100); assay type: binding; details: for Ka (Kon): HBS-EP+ (Hepes 10 mM, NaCl 150 mM, EDTA 3.4 mM, 0.05% p20, pH 7.4), 1:1 Langmuir model, full-length recombinant human HSPG as analyte; for Kd (koff) / Kd: HBS-EP+ pH 7.4, 1:1 Langmuir model, rHSPG as analyte; for Kd (koff): dissociation rate
Procedure: Experiments were performed on a Biacore T100 instrument (GE Healthcare). All materials were purchased from GE Healthcare unless otherwise specified. Full-length recombinant human HSPG were purchased from R&D Systems. Syndecan-3, syndecan-4, and glypican-3 were obtained from the mouse myeloma cell line (NS0), and glypican-4 was obtained from the Chinese Hamster Ovary cell line. The activity of syndecan-4, glypican-3, and glypican-4 was measured by the supplier as the ability of the immobilized protein to bind FGF-basic. The activity of syndecan-3 was measured by the supplier as the ability of the immobilized protein to inhibit adhesion of Saos-2 human osteosarcoma cells to human fibronectin.
as §1, §2, §3

[3] = target: recombinant human syndecan-4 (human, UniProt P31431 19-198); assay: SPR; Biacore T100; NT4-biotin captured on streptavidin on a CM5 chip; HSPG diluted in HBS-EP+ (Hepes 10 mM, NaCl 150 mM, EDTA 3.4 mM, 0.05% p20, pH 7.4) injected over it; 1:1 Langmuir model; details: both partners purified
[4] = target: recombinant human glypican-3 (human, UniProt P51654 25-580); assay: as above; details: both partners purified
[5] = target: T1, recombinant human glypican-4; assay: as above; details: both partners purified

Molecule | oligosaccharide binding to immobilized NT4 (in words) [1] | Kd (koff) [1] [s⁻¹] | Kd [1] [nM] | Kd (koff) [2] [s⁻¹] | Kd [2] [nM] | Ka (Kon) [1] [M⁻¹ s⁻¹] | Ka (Kon) [2] [M⁻¹ s⁻¹] | also measured
(pyELYENKPRRPYIL)4K2K-PEG12-K(biotin) [NT4-biotin] | – | – | – | – | – | – | – | time to complete internalization (cancer cell lines): 2 h; stability on degradation by living cells (living cells): still stable after 24 h
Glypican-3: full-length recombinant human HSPG from mouse myeloma cell line (NS0), R&D Systems | – | – | – | 0.001433 | 59.9 | – | 23920 | –
Glypican-4: full-length recombinant human HSPG from Chinese Hamster Ovary cell line, R&D Systems (protein) ALLAAELKSKSCSEVRRLYVSKGFNKNDAPLHEINGDHLKICPQGSTCCSQEMEEKYSLQSKDDFKSVVSEQCNHLQAVFASRYKKFDEFFKELLENAEKSLNDMFVKTYGHLYMQNSELFKDLFVELKRYYVVGNVNLEEMLNDFWARLLERMFRLVNSQYHFTDEYLECVSKYTEQLKPFGDVPRKLKLQVTRAFVAARTFAQGLAVAGDVVSKVSVVNPTAQCTHALLKMIYCSHCRGLVTVKPCYNYCSNIMRGCLANQGDLDFEWNNFIDAMLMVAERLEGPFNIESVMDPIDVKISDAIMNMQDNSVQVSQKVFQGCGPPKPLPAGRISRSISESAFSARFRPHHPEERPTTAAGTSLDRLVTDVKEKLKQAKKFWSSLPSNVCNDERMAAGNGNEDDCWNGKGKSRYLFAVTGNGLANQGNNPEVQVDTSKPDILILRQIMALRVMTSKMKNAYNGNDVDFFDISDESSGEGSGSGCEYQQCPSEFDYNATDHAGKSANEKADS | – | – | – | 0.0006719 | 77.1 | – | 8710 | –
Syndecan-4: full-length recombinant human HSPG from mouse myeloma cell line (NS0), R&D Systems (protein) ESIRETEVIDPQDLLEGRYFSGALPDDEDVVGPGQESDDFELSGSGDLDDLEDSMIGPEVVHPLVPLDNHIPERAGSGSQVPTEPKKLEENEVIPKRISPVEESEDVSNKVSMSSTVQGSNIFERTEVLAALIVGGIVGILFAVFLILLLMYRMKKKDEGSYDLGKKPIYKKAPTNEFYA | – | – | – | 0.002316 | 257 | – | 9010 | –
ELYENKPRRPYIL (pyroglutamate at position 1 (pyE); the four arms are built on a branching core of lysines, K2K-PEG12-K(biotin), the 13-amino-acid arm of the tetrabranched peptide; the first letter is pyroglutamate (printed pyE); Tetrabranched: four copies of the arm joined by their C-termini to the amines of a three-lysine core (K2K), followed by PEG12 and Lys(biotin); The core is not written as a chain; also called NT4 peptide; NT4 conjugated with biotin; source: synthetic peptide (Fmoc chemistry, HPLC purified); not …) [NT4-biotin (pyELYENKPRRPYIL)4K2K-PEG12-K(biotin)] | – | – | – | – | – | – | – | Kd [3]: 257 nM; koff [3]: 0.00232 s⁻¹; kon [3]: 9010 M⁻¹ s⁻¹; Kd [4]: 59.9 nM; koff [4]: 0.00143 s⁻¹; kon [4]: 23900 M⁻¹ s⁻¹; Kd [5]: 77.1 nM; koff [5]: 0.000672 s⁻¹; kon [5]: 8710 M⁻¹ s⁻¹

Continued, in another order:

oligosaccharide binding to immobilized NT4 (in words) [1] | Kd (koff) [1] [s⁻¹] | Kd [1] [nM] | Kd (koff) [2] [s⁻¹] | Kd [2] [nM] | Molecule | Ka (Kon) [1] [M⁻¹ s⁻¹] | Ka (Kon) [2] [M⁻¹ s⁻¹] | also measured
almost total loss of binding | – | – | – | – | (GlcNS-GlcA)4 α-paranitrophenyl [S04] | – | – | –
– | 0.004039 | 2700 | – | – | GlcNS-GlcA-GlcNS-IdoA,2S-GlcNS-IdoA,2S-GlcNS-GlcA α-paranitrophenyl [S06b] | 1490 | – | –
bound NT4 better | 0.002575 | 2430 | – | – | (GlcA-GlcNS)2-(GlcA-GlcNS,6S)2-GlcA α-paranitrophenyl [S06a] | 1060 | – | –
best-binding oligosaccharide | 0.0009126 | 258 | – | – | (ΔHexA,2S α1-4 GlcNS,6S)3 [S12] | 3530 | – | –
